Row | SMILES | melting point [°C]
1 | NC(=O)c1ccc(NCCO)c([N+](=O)[O-])c1 | 218 to 220
2 | O=[N+]([O-])c1ccc2oc(CCl)nc2c1 | 115 to 117
3 | NCCc1ccc(OCC(N)=O)cc1 | 96 to 98
4 | Cn1ccc(C(=O)CCl)c1 | 49 to 51
5 | C=CC(=O)Nc1ccc(OC)c(OC)c1 | 102 to 104
6 | CC1N=C(S)N(C2CC2)C1=O (stereo unspecified) | < 17
7 | C=C(C#N)C(O)c1ccc([N+](=O)[O-])cc1 (stereo unspecified) | 64 to 66
8 | O=C(O)c1ccc(Sc2ccc(Cl)cc2)cc1 | 203 to 205
9 | Nc1cc(F)c(-n2ccnc2)c(F)c1 | 159 to 161
10 | CC(C)(C)OC(=O)Nc1cn[nH]c1 | 179 to 181
11 | O=Cc1cccc2c1OCO2 | 34 to 36
12 | COc1ccc2ocnc2c1 | 75 to 77
13 | O=c1cc(CCl)c2ccc(Br)cc2o1 | 160 to 162
14 | NNC(=O)Cc1cc[nH]n1 | 180 to 182
15 | COC(=O)c1c(C)[nH]c(C(=O)O)c1C | 206 to 208
16 | O=Cc1cn(-c2ccccc2)nc1-c1cccc(Br)c1 | 91 to 93
17 | Nc1ccc(N2CCc3sccc3C2)cc1 | 61 to 63
18 | CC(=O)CCCCCCC(=O)O | 38 to 40
19 | Nc1cc(-c2ccco2)no1 | 95 to 99
20 | CSC(C(=O)O)C(C)(C)C (stereo unspecified) | 83 to 85
21 | CCNc1ccc(S(=O)(=O)N(C)C)cc1N | 161 to 163
22 | COc1ccc(C(=O)N2CCCC(C(=O)O)C2)c2ccccc12 (stereo unspecified) | 255 to 257
23 | Cc1n[nH]c(-c2ccccc2C)n1 | 141 to 143
24 | O=C(O)CNC(=O)c1cccc(OCc2ccccc2)c1 | 185 to 187

Row | SMILES | melting point [°C]
25 | CCc1nc2cc(N)ccc2o1 | 69 to 71
26 | NC(=O)CC1CCCCN1 (stereo unspecified) | 108 to 110
27 | CCCS(=O)(=O)NC(C)C(=O)O (stereo unspecified) | 64 to 66
28 | CCCC(=O)N1CCCCC1C(=O)O (stereo unspecified) | 63 to 65
29 | COc1cc(N2CC(C(=O)O)CC2=O)cc(OC)c1OC (stereo unspecified) | 143 to 145
30 | NC(=NO)c1ccc(N2CCCCC2)cc1 | 169 to 171
31 | CC1NCCNC1=O (stereo unspecified) | 65 to 67
32 | O=c1[nH]c(Cl)cc2ccccc12 | 214 to 216
33 | O=C(O)CN1CCCS1(=O)=O | 83 to 85
34 | CCN(CC)S(=O)(=O)c1ccc(N2CCCCC2)c(N)c1 | 75 to 77
35 | Nc1ccc(Cl)nc1N | 129 to 131
36 | OCc1ccc2c(c1)CCC2 | 69 to 71
37 | Cc1nc(-c2ccc(Cl)cc2)sc1C(C)O (stereo unspecified) | 119 to 121
38 | Nc1ccc2nc3n(c(=O)c2c1)CCC3 | 221 to 223
39 | Cc1nn(C(F)F)c(C)c1CO | 86 to 88
40 | CN(C)C(=O)c1cn[nH]c1N | 167 to 169
41 | Cc1nc(N)sc1Cc1ccc(F)cc1 | 94 to 96
42 | CCCn1c(=O)n(C)c(=O)c2c(S)nc(C(C)C)nc21 | 204 to 206
43 | Cc1nc(-c2ccc(I)cc2)n[nH]1 | 197 to 199
44 | CC1(C)C(=O)Nc2ccccc2N1C(=O)CCl | 170 to 172
45 | OCc1cc(Br)cs1 | 30 to 32
46 | NC(=O)c1cc(-c2ccccc2)sc1NC(=O)CCl | 208 to 210
47 | CC1NC(=O)c2ccccc2N(C)C1=O (stereo unspecified) | 250 to 252
48 | CC=C(C)C=CC(=O)O | 89 to 91

Row | SMILES | melting point [°C]
49 | O=C(O)CCC1NC(=O)NC1=O (stereo unspecified) | 169 to 171
50 | OCCc1nc2ccccc2s1 | 40 to 44
51 | O=C(O)C=CC(=O)c1ccc(F)c(F)c1 | 114 to 116
52 | C/C(Cn1nc(C)cc1C)=N\O | 114 to 116
53 | Nc1ccccc1OCCN1CC(=O)Nc2ccccc21 | 147 to 149
54 | O=C(Nc1nc2ccccc2s1)OCC(F)(F)F | 224 to 226
55 | CSc1nc(CCl)cc(=O)[nH]1 | 176 to 178
56 | O=c1[nH]cc(Br)c2sccc12 | 229 to 231
57 | Nc1nc2cc(Br)ccc2o1 | 172 to 174
58 | COc1ccc(NC(=O)CC(C)=O)c(OC)c1 | 96 to 98
59 | CCCNc1ccc(Cl)cc1N | 62 to 64
60 | Sc1nnc(Nc2ccc(Oc3ccccc3)cc2)s1 | 183 to 185
61 | CCOC(=O)C1=C(C)NC(C)=C(C(=O)O)C1c1cccc([N+](=O)[O-])c1 (stereo unspecified) | 199 to 201
62 | Cc1ccc(S(N)(=O)=O)cc1N(C)C | 126 to 128
63 | CCc1cc(=O)[nH]c(-c2ccccc2)n1 | 162 to 164
64 | Nc1ccc(N2CCOCC2)c(S(=O)(=O)Nc2cc(Cl)ccc2Cl)c1 | 66 to 68
65 | CCCCNS(=O)(=O)c1ccc(N)c(N)c1 | 48 to 52
66 | NC(=O)C1CNCCO1 (stereo unspecified) | 158 to 160
67 | Clc1ccc(Br)c2ccccc12 | 62 to 64
68 | Sc1nnc(-c2c[nH]c3ccccc23)n1CC1CCCO1 (stereo unspecified) | 251 to 253
69 | O=C(NC1CC1)OCC(F)(F)F | 53 to 55
70 | CS(=O)(=O)c1cccc(C(=O)c2ccc(F)cc2F)c1 | 129 to 131
71 | O=C(Nc1cccc(Br)c1)C1CCNCC1 | 178 to 180

Now from value to molecule:

Row | melting point [°C] | SMILES
72 | 112 to 114 | CNC(=O)CNc1ccccc1C
73 | 239 to 241 | O=C(O)c1ccc(Cl)c(S(=O)(=O)N2CCCC2)c1
74 | 165 to 167 | CN(CC(=O)O)c1nc2ccccc2s1
75 | 59 to 61 | CCC(CC(=O)O)c1ccccc1 (stereo unspecified)
76 | 87 to 89 | Cc1cc(OC(C)C(=O)O)ccc1Cl (stereo unspecified)
77 | 262 to 264 | O=C(O)Cc1ccc(S(=O)(=O)N2CCCC2)s1
78 | 224 to 226 | Cc1csc(NCC(=O)O)n1
79 | 114 to 116 | Cn1nnc(C(=O)O)c1C(F)(F)F
80 | 185 to 187 | O=C(O)Cc1c[nH]c2cc(Cl)ccc12
81 | 111 to 113 | Cc1cc(Br)ccc1CC(=O)O
82 | 215 to 217 | CCNc1nc(C(=O)O)cs1
83 | 238 to 240 | CNS(=O)(=O)c1cc(/C=C/C(=O)O)ccc1OC
84 | 249 to 251 | Cc1sc(C(=O)O)cc1S(N)(=O)=O
85 | 242 to 244 | O=C(O)c1cc(-c2ccccc2)nc2c1cnn2Cc1ccco1
86 | 209 to 211 | O=C(O)c1cc(C2CC2)nc2c1cnn2Cc1ccccc1
87 | 173 to 175 | NC(=O)CC(NS(=O)(=O)c1cccc(F)c1)C(=O)O (stereo unspecified)
88 | 130 to 132 | COc1cc(C=O)ccc1OCCC(=O)O
89 | 119 to 121 | COC(=O)c1ccc(C)c(O)c1

Row | melting point [°C] | SMILES
90 | 228 to 230 | O=C(O)C1CC1c1ccncc1 (stereo unspecified)
91 | 176 to 178 | Cc1oc(-c2ccco2)nc1CC(=O)O
92 | 154 to 156 | CCSc1ccc(Cl)cc1C(=O)O
93 | 271 to 273 | Cc1ccc(S(N)(=O)=O)c(C(=O)O)c1
94 | 152 to 154 | Cc1ccc2cccc(C(=O)O)c2n1
95 | 97 to 99 | O=C(O)CCc1nc2ccccc2s1
96 | 143 to 147 | Cc1ccc(NC(=O)C(Cl)c2ccccc2)cc1 (stereo unspecified)
97 | 231 to 232 | Cc1ncccc1C(=O)O
98 | 112 to 114 | NC(=O)c1ccccc1OCCO
99 | 55 to 57 | CC(O)Cc1ccccc1S(C)(=O)=O (stereo unspecified)
100 | 148 to 150 | CC(C)NC(=O)c1ccccc1N
101 | 199 to 201 | O=C(O)c1ccc2c(c1Cl)C(=O)c1ccccc1C2=O
102 | 83 to 85 | CC(=O)c1ccc(N)cc1C
103 | 89 to 91 | O=C(O)CC1CCOc2ccccc21 (stereo unspecified)
104 | 163 to 165 | O=C(O)c1c(C2CC2)nc2sccn12
105 | 99 to 101 | Cc1cncc(CCC(=O)O)c1
106 | 62 to 64 | Cc1cc(OCCO)ccc1N
